From BindingDB's records for doi:10.1021/jm00066a012 (Upjohn Laboratories, 1993)

Assay: In vitro inhibitory activity against ADP-induced human platelet aggregation

| IC50 | Structure (SMILES) |
| --- | --- |
| 41 µM | O=c1cc(N2CCOCC2)oc2cc(OCc3cccc4ccccc34)ccc12 [2-Morpholin-4-yl-7-(naphthalen-1-ylmethoxy)-chromen-4-one] |
| 53 µM | O=c1cc(N2CCOCC2)oc2cc(OCc3ccccn3)ccc12 [2-Morpholin-4-yl-7-(pyridin-2-ylmethoxy)-chromen-4-one] |
| > 75 µM | Cc1c(N2CCOCC2)oc2c(C)c(OCc3cccc4ccccc34)ccc2c1=O [3,8-Dimethyl-2-morpholin-4-yl-7-(naphthalen-1-ylmethoxy)-chromen-4-one] |
| 1.4 µM | Cc1cc2c(=O)cc(N3CCOCC3)oc2c(C)c1OCCN1CCN(C)CC1 [6,8-Dimethyl-7-[2-(4-methyl-piperazin-1-yl)-ethoxy]-2-morpholin-4-yl-chromen-4-one] |
| 12 µM | Cc1c(OCc2nnnn2C2CCCCC2)ccc2c(=O)cc(N3CCOCC3)oc12 [7-(1-Cyclohexyl-1H-tetrazol-5-ylmethoxy)-8-methyl-2-morpholin-4-yl-chromen-4-one] |
| 2 µM | Cc1c(OCc2nnnn2C(C)(C)C)ccc2c(=O)cc(N3CCOCC3)oc12 [7-(1-tert-Butyl-1H-tetrazol-5-ylmethoxy)-8-methyl-2-morpholin-4-yl-chromen-4-one] |
| 3 µM | Cc1c(OCCN2CCCCCC2)ccc2c(=O)cc(N3CCOCC3)oc12 [7-(2-Azepan-1-yl-ethoxy)-8-methyl-2-morpholin-4-yl-chromen-4-one] |
| 2.6 µM | CCN(CC)CCOc1ccc2c(=O)cc(N3CCOCC3)oc2c1C [7-(2-Diethylamino-ethoxy)-8-methyl-2-morpholin-4-yl-chromen-4-one] |
| 44 µM | COc1ccccc1COc1ccc2c(=O)cc(N3CCOCC3)oc2c1C [7-(2-Methoxy-benzyloxy)-8-methyl-2-morpholin-4-yl-chromen-4-one] |
| 7 µM | COCCOc1ccc2c(=O)cc(N3CCOCC3)oc2c1C [7-(2-Methoxy-ethoxy)-8-methyl-2-morpholin-4-yl-chromen-4-one] |
| 47 µM | COc1ccc(COc2ccc3c(=O)cc(N4CCOCC4)oc3c2C)cc1 [7-(4-Methoxy-benzyloxy)-8-methyl-2-morpholin-4-yl-chromen-4-one] |
| 58 µM | C=CCOc1ccc2c(=O)cc(N3CCOCC3)oc2c1C [7-Allyloxy-8-methyl-2-morpholin-4-yl-chromen-4-one] |
| > 75 µM | Cc1c(N2CCOCC2)oc2c(C)c(OCc3ccccc3)ccc2c1=O [7-Benzyloxy-3,8-dimethyl-2-morpholin-4-yl-chromen-4-one] |
| 40 µM | Cc1c(OCc2ccccc2)ccc2c(=O)cc(N3CCOCC3)oc12 [7-Benzyloxy-8-methyl-2-morpholin-4-yl-chromen-4-one] |
| 41 µM | COc1ccc2c(=O)cc(N3CCOCC3)oc2c1C [7-Methoxy-8-methyl-2-morpholin-4-yl-chromen-4-one] |
| 11 µM | Cc1c(OCCN2CCN(Cc3ccccc3)CC2)ccc2c(=O)cc(N3CCOCC3)oc12 [7-[2-(4-Benzyl-piperazin-1-yl)-ethoxy]-8-methyl-2-morpholin-4-yl-chromen-4-one] |
| 69 µM | CCCc1c(OCCN2CCN(C)CC2)ccc2c(=O)cc(N3CCOCC3)oc12 [7-[2-(4-Methyl-piperazin-1-yl)-ethoxy]-2-morpholin-4-yl-8-propyl-chromen-4-one] |
| 3 µM | C=Cc1c(OCCN2CCN(C)CC2)ccc2c(=O)cc(N3CCOCC3)oc12 [7-[2-(4-Methyl-piperazin-1-yl)-ethoxy]-2-morpholin-4-yl-8-vinyl-chromen-4-one] |
| 35 µM | CN1CCN(CCOc2ccc3c(=O)cc(N4CCOCC4)oc3c2)CC1 [7-[2-(4-Methyl-piperazin-1-yl)-ethoxy]-2-morpholin-4-yl-chromen-4-one] |
| 0.85 µM | Cc1c(OCCN2CCN(C)CC2)ccc2c(=O)cc(N3CCOCC3)oc12 [7-[2-(4-methylpiperazin-1-yl)ethoxy]-8-methyl-2-morpholinyl chromone] |
| 43 µM | CCN(CCOc1ccc2c(=O)cc(N3CCOCC3)oc2c1C)c1ccccc1 [7-[2-(Ethyl-phenyl-amino)-ethoxy]-8-methyl-2-morpholin-4-yl-chromen-4-one] |

| IC50 | Structure (SMILES) |
| --- | --- |
| 12 µM | Cc1c(OCCN2CCN(CCO)CC2)ccc2c(=O)cc(N3CCOCC3)oc12 [7-{2-[4-(2-Hydroxy-ethyl)-piperazin-1-yl]-ethoxy}-8-methyl-2-morpholin-4-yl-chromen-4-one] |
| 14 µM | CCN(CCO)CCOc1ccc2c(=O)cc(N3CCOCC3)oc2c1C [7-{2-[Ethyl-(2-hydroxy-ethyl)-amino]-ethoxy}-8-methyl-2-morpholin-4-yl-chromen-4-one] |
| 8.9 µM | C=CCc1c(OCCN2CCN(C)CC2)ccc2c(=O)cc(N3CCOCC3)oc12 [8-Allyl-7-[2-(4-methyl-piperazin-1-yl)-ethoxy]-2-morpholin-4-yl-chromen-4-one] |
| 4 µM | CCc1c(OCCN2CCN(C)CC2)ccc2c(=O)cc(N3CCOCC3)oc12 [8-Ethyl-7-[2-(4-methyl-piperazin-1-yl)-ethoxy]-2-morpholin-4-yl-chromen-4-one] |
| 8 µM | Cc1c(OCc2nnnn2-c2ccccc2)ccc2c(=O)cc(N3CCOCC3)oc12 [8-Methyl-2-morpholin-4-yl-7-(1-phenyl-1H-tetrazol-5-ylmethoxy)-chromen-4-one] |
| 43 µM | Cc1c(OCC(=O)c2ccccc2)ccc2c(=O)cc(N3CCOCC3)oc12 [8-Methyl-2-morpholin-4-yl-7-(2-oxo-2-phenyl-ethoxy)-chromen-4-one] |
| 12 µM | CC(=O)COc1ccc2c(=O)cc(N3CCOCC3)oc2c1C [8-Methyl-2-morpholin-4-yl-7-(2-oxo-propoxy)-chromen-4-one] |
| 4 µM | Cc1c(OCCN2CCNCC2)ccc2c(=O)cc(N3CCOCC3)oc12 [8-Methyl-2-morpholin-4-yl-7-(2-piperazin-1-yl-ethoxy)-chromen-4-one] |
| 5 µM | Cc1c(OCCN2CCCCC2)ccc2c(=O)cc(N3CCOCC3)oc12 [8-Methyl-2-morpholin-4-yl-7-(2-piperidin-1-yl-ethoxy)-chromen-4-one] |
| 4 µM | Cc1c(OCCN2CCCC2)ccc2c(=O)cc(N3CCOCC3)oc12 [8-Methyl-2-morpholin-4-yl-7-(2-pyrrolidin-1-yl-ethoxy)-chromen-4-one] |
| 4.3 µM | Cc1c(OCCN2CCSCC2)ccc2c(=O)cc(N3CCOCC3)oc12 [8-Methyl-2-morpholin-4-yl-7-(2-thiomorpholin-4-yl-ethoxy)-chromen-4-one] |
| 13 µM | Cc1c(OCc2cccc3ccccc23)ccc2c(=O)cc(N3CCOCC3)oc12 [8-Methyl-2-morpholin-4-yl-7-(naphthalen-1-ylmethoxy)-chromen-4-one] |
| 65 µM | Cc1c(OCc2ccc3ccccc3c2)ccc2c(=O)cc(N3CCOCC3)oc12 [8-Methyl-2-morpholin-4-yl-7-(naphthalen-2-ylmethoxy)-chromen-4-one] |
| 19 µM | Cc1c(OCc2ccccn2)ccc2c(=O)cc(N3CCOCC3)oc12 [8-Methyl-2-morpholin-4-yl-7-(pyridin-2-ylmethoxy)-chromen-4-one] |
| 4 µM | Cc1c(OCc2cccnc2)ccc2c(=O)cc(N3CCOCC3)oc12 [8-Methyl-2-morpholin-4-yl-7-(pyridin-3-ylmethoxy)-chromen-4-one] |
| > 75 µM | Cc1c(OCCN2CCN(c3ccccc3)CC2)ccc2c(=O)cc(N3CCOCC3)oc12 [8-Methyl-2-morpholin-4-yl-7-[2-(4-phenyl-piperazin-1-yl)-ethoxy]-chromen-4-one] |
| 2.8 µM | Cc1c(OCc2nnnn2C)ccc2c(=O)cc(N3CCOCC3)oc12 [8-Methyl-7-(1-methyl-1H-tetrazol-5-ylmethoxy)-2-morpholin-4-yl-chromen-4-one] |
| 14 µM | CSCCOc1ccc2c(=O)cc(N3CCOCC3)oc2c1C [8-Methyl-7-(2-methylsulfanyl-ethoxy)-2-morpholin-4-yl-chromen-4-one] |
| 59 µM | COC(=O)COc1ccc2c(=O)c(C)c(N3CCOCC3)oc2c1C [(3,8-Dimethyl-2-morpholin-4-yl-4-oxo-4H-chromen-7-yloxy)-acetic acid methyl ester] |
| 9 µM | COC(=O)COc1ccc2c(=O)cc(N3CCOCC3)oc2c1C [(8-Methyl-2-morpholin-4-yl-4-oxo-4H-chromen-7-yloxy)-acetic acid methyl ester] |
